Test results reported in PubChem BioAssay (NCI).
Values joined by “and” are separate entries in the source; they are usually repeats but may differ in a detail not shown here. Identical values can stand only once.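 Grown in 96-well plates, cells were treated for 48 hours with each compound at five concentrations. Insufficient inhibition: endpoint recorded as highest concentration tested. Abbreviation: GI50, concentration required for 50% inhibition of growth. Definition used: TGI = concentration required for complete inhibition of growth.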

How the values were obtained:
Experiment in all cases: growth of human tumour cells (NCI), 48 h
U251 CNS = tested on: U251 CNS
SF-539 CNS = tested on: SF-539 CNS
MOLT-4 leukemia = tested on: MOLT-4 leukemia
786-0 renal = tested on: 786-0 renal
UACC-257 melanoma = tested on: UACC-257 melanoma
SNB-19 CNS = tested on: SNB-19 CNS
SF-295 CNS = tested on: SF-295 CNS
HOP-92 NSCLC = tested on: HOP-92 NSCLC
UO-31 renal = tested on: UO-31 renal
NCI-H460 lung = tested on: NCI-H460 lung

SMILES | GI50 (U251 CNS) | TGI (U251 CNS) | GI50 (SF-539 CNS) | TGI (SF-539 CNS) | GI50 (MOLT-4 leukemia) | TGI (MOLT-4 leukemia) | GI50 (786-0 renal) | TGI (786-0 renal) | GI50 (UACC-257 melanoma) | GI50 (SNB-19 CNS) | TGI (SNB-19 CNS) | GI50 (SF-295 CNS) | TGI (SF-295 CNS) | GI50 (HOP-92 NSCLC) | TGI (HOP-92 NSCLC) | GI50 (UO-31 renal) | TGI (UO-31 renal) | GI50 (NCI-H460 lung) | TGI (NCI-H460 lung) | TGI (UACC-257 melanoma)
CNC(=O)Cc1nc(-c2cccc(NS(=O)(=O)c3c(F)cccc3F)c2F)c(-c2ccnc(Nc3ccccc3)n2)s1 | 22.7 µM | > 50 µM | 10.9 µM | > 50 µM | 12.5 µM | > 50 µM | 10.1 µM | > 50 µM | 0.0142 µM | 14.3 µM | > 50 µM | 20.5 µM | > 50 µM | 0.355 µM | > 14.4 µM | 1.22 µM | 13.7 µM | 14.8 µM | > 50 µM | –
C=C[C@@]1(O)CCCC2=C(C(=O)OCC)CC[C@]21C | – | > 100 µM | – | > 100 µM | – | > 100 µM | – | > 100 µM | – | – | > 100 µM | – | > 100 µM | – | > 100 µM | – | > 100 µM | – | > 100 µM | > 100 µM
CC[N+]1(C)CCC(O)(c2ccc(OC)cc2)C(C(=O)c2ccc(OC)cc2)C1 (stereo not drawn) | – | 33 µM | – | 32 µM | – | > 21.1 µM | – | 9.05 µM | – | – | 47.7 µM | – | 38.9 µM | – | 6.79 µM | – | 33.6 µM | – | 45 µM | 35.4 µM
CN/N=C(\C)C(CN(C)C)C(c1ccccc1)c1c(O)c2ccccc2oc1=O (stereo not drawn) | – | > 100 µM | – | > 100 µM | – | > 100 µM | – | > 100 µM | – | – | > 100 µM | – | > 100 µM | – | 6.78 µM | – | > 100 µM | – | > 100 µM | > 100 µM
COc1ccc(C(=O)c2cc3c(N)c(C(=O)Nc4ccc(C)cc4)sc3nc2C)cc1 | 3.6 µM | 28.8 µM | 2.5 µM | 9.38 µM | 3.92 µM | > 100 µM | 4.48 µM | 19.1 µM | 20.4 µM | 4.22 µM | 30.9 µM | 2.51 µM | 15 µM | 2.15 µM | 21.9 µM | 3.11 µM | 27.3 µM | 2.99 µM | 14.2 µM | > 100 µM
Cc1cc(N2CCSCC2)nc(NC2CCCC(Nc3ccnc4cc(Cl)ccc34)C2)n1 (stereo not drawn) | 1.91 µM | 3.7 µM | 1.69 µM | 3.16 µM | 1.55 µM | 5.34 µM | 1.52 µM | 2.92 µM | 2.14 µM | 3.26 µM | 11.5 µM | 1.7 µM | 3.27 µM | 1.65 µM | 3.45 µM | 1.41 µM | 2.77 µM | 1.97 µM | 4.13 µM | 4.13 µM
C=C(Nc1ccc([N+](=O)[O-])cc1[N+](=O)[O-])c1c/c(=N\NC(N)=S)c2ccccc2o1 | – | > 100 µM | – | 55.7 µM | – | > 100 µM | – | > 100 µM | – | – | > 100 µM | – | > 100 µM | – | > 100 µM | – | > 100 µM | – | > 100 µM | > 100 µM
O=C1C=CC(=O)c2cc(Sc3ccccc3)c(=O)ccc21 | – | 38.5 µM | – | 37 µM | – | 16 µM | – | 31.9 µM | – | – | 38.1 µM | – | 27.6 µM | – | > 52.7 µM | – | 30.5 µM | – | 47.6 µM | 33.6 µM
CCCN(CCCC(NC(C)=O)C(=O)NCc1ccccc1)C(=O)NCCCl (stereo not drawn) | – | > 100 µM | – | > 100 µM | – | > 100 µM | – | > 100 µM | – | – | > 100 µM | – | > 100 µM | – | > 100 µM | – | > 100 µM | – | > 100 µM | > 100 µM
O=C1/C(=C\c2ccccn2)c2ccccc2N1c1c(Cl)cccc1Cl | 1.84 µM | 3.68 µM | 2.44 µM | 6.33 µM | 4.2 µM | > 65.7 µM | 1.84 µM | 3.49 µM | 2.2 µM | 2.28 µM | 6.25 µM | 1.96 µM | 5.72 µM | – | 6.28 µM | 1.47 µM | 3.11 µM | 1.88 µM | 3.65 µM | 6.19 µM
C[N+](C)(C)CC(=O)N/N=C(\C(=O)NC1=C(Cl)C(=O)c2ccccc2C1=O)C(C#N)c1csc(-c2ccc([N+](=O)[O-])cc2)n1 (stereo not drawn) | – | > 100 µM | – | > 100 µM | – | > 100 µM | – | > 100 µM | – | – | > 100 µM | – | > 100 µM | – | > 100 µM | – | > 100 µM | – | > 100 µM | > 100 µM
Cc1sc2c(c1C)C(c1ccc(Cl)cc1)=N[C@@H](CC(=O)OC(C)(C)C)c1nnc(C)n1-2 | 2.45 µM and 1.24 µM | 20.6 µM and 19 µM | 0.639 µM and 0.462 µM | 19.4 µM and 17.9 µM | 1.61 µM and 1.81 µM | 23 µM and 17.8 µM | 0.605 µM and 0.841 µM | 19.9 µM and 18.9 µM | 0.313 µM and 0.146 µM | 0.629 µM and 0.421 µM | > 47.2 µM and 18.9 µM | 0.365 µM and 0.182 µM | 18.2 µM and 15.5 µM | 0.0319 µM and 0.0183 µM | 0.39 µM and 0.29 µM | 0.0634 µM and 0.0301 µM | 13.8 µM and 14.2 µM | 1.55 µM and 0.603 µM | 22.6 µM and 19 µM | 19.5 µM and 17 µM
CCCCCCCCCCCCCCCCCC(=O)OCC(COC(=O)CCCN)OC(=O)CCCN (stereo not drawn) | – | 40.8 µM | – | 32.2 µM | – | 70.8 µM | – | 34.3 µM | – | – | 48 µM | – | 35.1 µM | – | 26.6 µM | – | 3.63 µM | – | 30.7 µM | 34.4 µM
COc1ccc(OC)c2c1[nH]c(=O)c1c3ncccc3cn21 | 3.63 µM | 27.8 µM | 3.96 µM | > 100 µM | 3.59 µM | > 100 µM | 5.44 µM | > 100 µM | 5.05 µM | 5.6 µM | > 100 µM | 2.92 µM | > 100 µM | 0.854 µM | 6.26 µM | 2.49 µM | > 100 µM | 1.61 µM | 3.39 µM | > 100 µM
CCc1cc(CCC(=O)Nc2c(C)cccc2C)[nH]n1 | – | > 100 µM | – | > 100 µM | – | > 100 µM | – | > 100 µM | – | – | > 100 µM | – | > 100 µM | – | > 100 µM | – | > 100 µM | – | > 100 µM | > 100 µM
COC(=O)Cc1ccc(Oc2cnc3cc(F)c(F)cc3n2)cc1 | > 100 µM | > 100 µM | > 100 µM | > 100 µM | 12.7 µM | 32.9 µM | > 100 µM | > 100 µM | > 100 µM | > 100 µM | > 100 µM | > 100 µM | > 100 µM | > 100 µM | > 100 µM | > 100 µM | > 100 µM | > 100 µM | > 100 µM | > 100 µM
NC(=O)c1cccc(Nc2nccc(Nc3cccc4[nH]ncc34)n2)c1 | 9.53 µM | > 25 µM | 6.24 µM | > 21.7 µM | 12.8 µM | > 25 µM | 10.8 µM | > 25 µM | > 19.2 µM | 12.7 µM | > 25 µM | 15.4 µM | > 25 µM | 3 µM | 12.2 µM | 12.4 µM | > 25 µM | 9.05 µM | > 25 µM | > 25 µM
COc1cccc(C2c3cc4c(cc3OC(N3CCCC3)C2C)OCO4)c1O (stereo not drawn) | – | 25.8 µM | – | 10.6 µM | – | 93 µM | – | > 100 µM | – | – | > 100 µM | – | 15.4 µM | – | 41.5 µM | – | 46.7 µM | – | 32.4 µM | 40.3 µM
CCN(CC)CCCNC(=O)c1c2c(n3ccccc13)C(=O)c1ncccc1C2=O | 1.37 µM | 2.89 µM | 1.07 µM | 2.45 µM | 0.604 µM | > 100 µM | 0.904 µM | 7.9 µM | 0.491 µM | 1.09 µM | 2.67 µM | 1.07 µM | 6.29 µM | 2.22 µM | 4.87 µM | 1.59 µM | 5.07 µM | 0.225 µM | 1.75 µM | 1.71 µM
COC(C(=O)NCCCCNC(=O)C(OC)c1ccccc1)c1ccccc1 (stereo not drawn) | – | > 100 µM | – | > 100 µM | – | > 100 µM | – | > 100 µM | – | – | > 100 µM | – | > 100 µM | – | > 100 µM | – | > 100 µM | – | > 100 µM | > 100 µM
CN(C)c1nc(=Nc2cccc(Cl)c2)ss1 | – | 24.1 µM | – | 32.8 µM | – | 22.4 µM | – | 25.6 µM | – | – | > 100 µM | – | 56.5 µM | – | 49.4 µM | – | 69.8 µM | – | 46.3 µM | 36 µM
